Assays:
[1] = system: Hepatitis B virus; assay: Inhibition of HBV M204I mutant transfected in B1 cell line at 10 ug/mL; format: functional
[2] = system: Hepatitis B virus; assay: Inhibition of wild type HBV transfected in human hepatoblastoma 2.2.15 cells at 10 ug/mL; format: functional; settings: HepG2 2.2.15
[3] = system: Duck hepatitis B virus; assay: Inhibition of duck HBV transfected in primary duck hepatocytes; format: functional, organism-based; settings: Hepatocyte
[4] = system: HepG2; assay: Cytotoxicity against HepG2 cell by MTT assay; format: functional; settings: Homo sapiens
[5] = system: Hepatitis B virus; assay: Inhibition of wild type HBV transfected in human hepatoblastoma 2.2.15 cells; format: functional, organism-based; settings: HepG2 2.2.15
[6] = system: Vero; assay: Cytotoxicity against Vero cell by MTT assay; format: functional; settings: Chlorocebus sabaeus
[7] = system: Hepatitis B virus; assay: Inhibition of HBV L180M/ M204V mutant transfected in D88 cell line; format: functional, organism-based
[8] = system: Duck hepatitis B virus; assay: Inhibition of duck HBV transfected in primary duck hepatocytes at 10 ug/mL; format: functional; settings: Hepatocyte
[9] = system: Hepatitis B virus; assay: Inhibition of HBV M204I mutant transfected in B1 cell line; format: functional, organism-based
[10] = system: Hepatitis B virus; assay: Inhibition of HBV L180M/ M204V mutant transfected in D88 cell line at 10 ug/mL; format: functional
[11] = system: West Nile virus; assay: Inhibitory activity against West Nile virus; format: functional, organism-based

`O=c1[nH]c(=O)n(COCCO)cc1Cl` showed an inhibition at 10 µg/mL [1] of 69%, an inhibition at 10 µg/mL [2] of 82% and an EC50 [3] of 0.4 µM. For the same compound, the CC50 [4] was over 454 µM, the EC50 [5] was 4.5 µM and the CC50 [6] was over 454 µM. The EC50 [7] was 4.5 µM, the inhibition at 10 µg/mL [8] was 94% and the EC50 [9] was 4.5 µM. It also gave an inhibition at 10 µg/mL [10] of 70%.

`O=c1[nH]c(=O)n(COCCO)cc1C(F)(F)F` gave an inhibition at 10 µg/mL [1] of 53%, an inhibition at 10 µg/mL [2] of 55% and an EC50 [3] of 3.9 µM. The CC50 [4] was over 393 µM, the EC50 [5] was 19.6 µM and the CC50 [6] was over 393 µM. It also gave an EC50 [7] of 39.3 µM, an inhibition at 10 µg/mL [8] of 76% and an EC50 [9] of 39.3 µM. It also gave an inhibition at 10 µg/mL [10] of 50%.

Work on `O=c1[nH]c(=O)n(COCCO)cc1I` yielded an EC50 [3] of 32 µM, a CC50 [4] of over 320 µM and a CC50 [6] of over 320 µM. For the same compound, the inhibition at 10 µg/mL [8] was 50%.

For `Cc1c(I)c(=O)[nH]c(=O)n1COCCO`, the inhibition at 10 µg/mL [1] was 30%, the inhibition at 10 µg/mL [2] was 53% and the EC50 [3] was 30.6 µM. It also gave a CC50 [4] of over 306 µM, an EC50 [5] of 30.6 µM and a CC50 [6] of over 306 µM. For the same compound, the inhibition at 10 µg/mL [8] was 51% and the inhibition at 10 µg/mL [10] was 25%.

`O=c1[nH]c(=O)n(COCCO)cc1CO` was tested, and the inhibition at 10 µg/mL [1] was 0%, the inhibition at 10 µg/mL [2] was 50% and the EC50 [3] was 47.6 µM. For the same compound, the CC50 [4] was over 476 µM, the EC50 [5] was 23.8 µM and the CC50 [6] was over 476 µM. The inhibition at 10 µg/mL [8] was 55% and the inhibition at 10 µg/mL [10] was 30%.

For `CCOC(=O)c1cn(COCCO)c(=S)[nH]c1=O`, the inhibition at 10 µg/mL [1] was 20%, the inhibition at 10 µg/mL [2] was 50% and the EC50 [3] was 36.4 µM. The CC50 [4] was over 364 µM, the EC50 [5] was 18.2 µM and the CC50 [6] was over 364 µM. For the same compound, the inhibition at 10 µg/mL [8] was 53% and the inhibition at 10 µg/mL [10] was 0%.

With `O=c1ccn(COCCO)c(=S)[nH]1` the inhibition at 10 µg/mL [1] was 30%, the inhibition at 10 µg/mL [2] was 42% and the EC50 [3] was over 49.5 µM. It also gave a CC50 [4] of over 495 µM, an EC50 [5] of over 49.5 µM and a CC50 [6] of over 495 µM. The inhibition at 10 µg/mL [8] was 46% and the inhibition at 10 µg/mL [10] was 0%.

Work on `Cc1cc(=O)[nH]c(=O)n1COCCO` yielded an inhibition at 10 µg/mL [1] of 30%, an inhibition at 10 µg/mL [2] of 55% and an EC50 [3] of 25 µM. The CC50 [4] was over 500 µM, the EC50 [5] was 25 µM and the CC50 [6] was over 500 µM. The inhibition at 10 µg/mL [8] was 60% and the inhibition at 10 µg/mL [10] was 0%.

`Nc1cn(COCCO)c(=O)[nH]c1=O` showed an inhibition at 10 µg/mL [1] of 30%, an inhibition at 10 µg/mL [2] of 50% and an EC50 [3] of 5 µM. It also gave a CC50 [4] of over 497 µM, an EC50 [5] of 50 µM and a CC50 [6] of over 497 µM. For the same compound, the inhibition at 10 µg/mL [8] was 65% and the inhibition at 10 µg/mL [10] was 30%.

`O=c1[nH]c(=O)n(COCCO)cc1Br` showed an inhibition at 10 µg/mL [1] of 67%, an inhibition at 10 µg/mL [2] of 60% and an EC50 [3] of 3.7 µM. The CC50 [4] was over 377 µM, the EC50 [5] was 18.5 µM and the CC50 [6] was over 377 µM. It also gave an EC50 [7] of 3.7 µM, an inhibition at 10 µg/mL [8] of 89% and an EC50 [9] of 18.5 µM. The inhibition at 10 µg/mL [10] was 73%.

`O=c1[nH]c(=O)n(COCCO)cc1[N+](=O)[O-]` gave an EC50 [11] of over 134 µM, an inhibition at 10 µg/mL [1] of 30% and an inhibition at 10 µg/mL [2] of 54%. For the same compound, the EC50 [3] was 43.2 µM, the CC50 [4] was over 432 µM and the EC50 [5] was 43.2 µM. The CC50 [6] was over 432 µM, the inhibition at 10 µg/mL [8] was 53% and the inhibition at 10 µg/mL [10] was 0%.

`COC(=O)c1cc(=O)[nH]c(=O)n1COCCO` showed an inhibition at 10 µg/mL [1] of 0%, an inhibition at 10 µg/mL [2] of 60% and an EC50 [3] of 40.9 µM. For the same compound, the CC50 [4] was over 409 µM, the EC50 [5] was 40.9 µM and the CC50 [6] was over 409 µM. The inhibition at 10 µg/mL [8] was 56% and the inhibition at 10 µg/mL [10] was 0%.

Compound `O=c1cnn(COCCO)c(=O)[nH]1` has an inhibition at 10 µg/mL [2] of 25%, an EC50 [3] of over 53 µM and a CC50 [4] of over 534 µM. It also gave an EC50 [5] of over 53 µM, a CC50 [6] of over 534 µM and an inhibition at 10 µg/mL [8] of 25%.

For `CCc1cn(COCCO)c(=S)[nH]c1=O`, the inhibition at 10 µg/mL [1] was 20%, the inhibition at 10 µg/mL [2] was 40% and the EC50 [3] was over 47.8 µM. The CC50 [4] was over 478 µM, the EC50 [5] was over 47.8 µM and the CC50 [6] was over 478 µM. The EC50 [7] was over 47.8 µM, the inhibition at 10 µg/mL [8] was 45% and the inhibition at 10 µg/mL [10] was 40%.

Compound `Cc1c([N+](=O)[O-])c(=O)[nH]c(=O)n1COCCO` has an inhibition at 10 µg/mL [1] of 25%, an inhibition at 10 µg/mL [2] of 60% and an EC50 [3] of 20.4 µM. It also gave a CC50 [4] of over 408 µM, an EC50 [5] of 20.4 µM and a CC50 [6] of over 408 µM. The inhibition at 10 µg/mL [8] was 68% and the inhibition at 10 µg/mL [10] was 20%.

Work on `Nc1nc(NC2CC2)c2ncn([C@H]3C=C[C@@H](CO)C3)c2n1` [ABACAVIR] yielded an inhibition at 10 µg/mL [1] of 80%, an EC50 [7] of 3.4 µM and an EC50 [9] of 3.4 µM. For the same compound, the inhibition at 10 µg/mL [10] was 72%.

`Nc1ccn([C@@H]2CS[C@H](CO)O2)c(=O)n1` [LAMIVUDINE] was tested, and the inhibition at 10 µg/mL [1] was 45%, the inhibition at 10 µg/mL [2] was 88% and the EC50 [3] was 0.04 µM. For the same compound, the EC50 [5] was 2.1 µM, the inhibition at 10 µg/mL [8] was 96% and the EC50 [9] was over 44 µM. The inhibition at 10 µg/mL [10] was 30%.
